Assay [1] deals with T1, Bifunctional epoxide hydrolase 2 (Homo sapiens, UniProt P34913).
T1 sequence (P34913 whole entry): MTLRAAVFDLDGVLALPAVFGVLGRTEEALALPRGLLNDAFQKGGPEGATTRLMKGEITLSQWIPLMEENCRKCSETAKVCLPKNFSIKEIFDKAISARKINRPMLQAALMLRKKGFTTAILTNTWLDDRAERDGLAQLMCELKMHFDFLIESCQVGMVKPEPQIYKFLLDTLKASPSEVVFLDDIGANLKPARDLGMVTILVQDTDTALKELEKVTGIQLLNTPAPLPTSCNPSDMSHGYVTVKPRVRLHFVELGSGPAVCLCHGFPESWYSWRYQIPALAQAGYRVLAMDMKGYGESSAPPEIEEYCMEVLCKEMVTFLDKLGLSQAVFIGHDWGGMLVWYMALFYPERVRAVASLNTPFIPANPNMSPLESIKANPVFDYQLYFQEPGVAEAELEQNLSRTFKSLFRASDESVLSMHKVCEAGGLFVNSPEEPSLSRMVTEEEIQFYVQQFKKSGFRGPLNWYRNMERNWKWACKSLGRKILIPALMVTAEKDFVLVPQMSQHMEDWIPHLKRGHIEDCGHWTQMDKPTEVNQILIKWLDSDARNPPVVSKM
Put plainly: Inhibition of human recombinant soluble epoxide hydrolase expressed in baculovirus-infected High Five cells S9 fraction using CMNPC substrate by fluorescence based assay. The assay is classed as cell-based.

For assay [2], the species on record is Felis catus. Put plainly: Inhibition of FAAH in cat brain microsomes using OMP substrate by fluorescence based assay. The following applies: concentration not given here.
For assay [3], the species on record is Canis lupus familiaris. Put plainly: Inhibition of FAAH in dog brain microsomes using OMP substrate by fluorescence based assay. The following applies: concentration not given here.
Assay [4] can be described thus: (§1) Inhibition of FAAH in horse brain microsomes using OMP substrate by fluorescence based assay. Further details: species or system Equus caballus.
For assay [5], the species on record is Equus caballus. Described as §1. The following applies: concentration not given here.
The target of assay [6] is T2, Bifunctional epoxide hydrolase 2 (Homo sapiens) (UniProt P34913).
T2 sequence (whole entry): T1 sequence (P34913 whole entry)

Activity calls are given as the source filed them. No cut-off for these calls is given here.

On to `O=C(Nc1ccc(Oc2ccc(C(=O)O)cc2)cc1)Nc1ccc(OC(F)(F)F)cc1`, for which the IC50 (as a rule, the concentration that inhibits the measured activity by half) in assay [1] was 7 nM.

Take `NC(=O)c1cccc(-c2cccc(OC(=O)NC3CCCCC3)c2)c1` [URB-597]: the IC50 was 1100 nM in assay [1] and 7 nM in assay [4]. Besides, the inhibition in assay [2], in assay [3] and in assay [5] was over 80% in each case. Further, the TDI entry in assay [6] was “Active”.

In the case of `O=C(Nc1ccc(OC(F)(F)F)cc1)N[C@H]1CC[C@H](Oc2ccc(C(=O)O)cc2)CC1`, the TDI result in assay [6] was “inactive”.

Consider `O=C(Nc1ccc(Cl)cc1)N[C@H]1CC[C@H](Oc2ccc(C(=O)O)cc2)CC1`, for which the IC50 in assay [1] was 7 nM.

For `O=C(NC1CCCCC1)N[C@H]1CC[C@H](Oc2ccc(C(=O)O)cc2)CC1`, the IC50 in assay [1] came to 6 nM.
